Test results taken from PubChem BioAssay (NCI).
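96-well plates; 48 h exposure; 5 concentrations. Endpoints by linear interpolation between flanking doses. Not reached: highest tested concentration assigned. TGI: total growth inhibition.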

How the values were obtained:
Assay in all cases: inhibition of tumour cell growth, NCI panel, 48 h
786-0 renal = system: 786-0 renal
A498 renal = system: A498 renal
A549 NSCLC = system: A549 NSCLC
ACHN renal = system: ACHN renal
BT-549 breast = system: BT-549 breast
CAKI-1 renal = system: CAKI-1 renal
CCRF-CEM leukemia = system: CCRF-CEM leukemia
COLO 205 colon = system: COLO 205 colon
DU-145 prostate = system: DU-145 prostate
EKVX NSCLC = system: EKVX NSCLC
HCC-2998 colon = system: HCC-2998 colon
HCT-116 colon = system: HCT-116 colon
HCT-15 colon = system: HCT-15 colon
HL-60(TB) leukemia = system: HL-60(TB) leukemia
HOP-62 NSCLC = system: HOP-62 NSCLC
HOP-92 NSCLC = system: HOP-92 NSCLC
HS 578T breast = system: HS 578T breast
HT29 colon = system: HT29 colon
IGROV1 ovarian = system: IGROV1 ovarian
K-562 leukemia = system: K-562 leukemia
KM12 colon = system: KM12 colon
LOX IMVI melanoma = system: LOX IMVI melanoma
M14 melanoma = system: M14 melanoma
MALME-3M melanoma = system: MALME-3M melanoma
MCF7 breast = system: MCF7 breast
MDA-MB-231 breast = system: MDA-MB-231 breast
MDA-MB-435 = system: MDA-MB-435
MDA-N = system: MDA-N
MOLT-4 leukemia = system: MOLT-4 leukemia
NCI-H226 lung = system: NCI-H226 lung
NCI-H23 lung = system: NCI-H23 lung
NCI-H460 lung = system: NCI-H460 lung
NCI-H522 lung = system: NCI-H522 lung
NCI/ADR-RES ovarian = system: NCI/ADR-RES ovarian
OVCAR-3 ovarian = system: OVCAR-3 ovarian
OVCAR-4 ovarian = system: OVCAR-4 ovarian
OVCAR-5 ovarian = system: OVCAR-5 ovarian
OVCAR-8 ovarian = system: OVCAR-8 ovarian
PC-3 prostate = system: PC-3 prostate
RPMI-8226 leukemia = system: RPMI-8226 leukemia
RXF 393 renal = system: RXF 393 renal
SF-268 CNS = system: SF-268 CNS
SF-295 CNS = system: SF-295 CNS
SF-539 CNS = system: SF-539 CNS
SK-MEL-2 melanoma = system: SK-MEL-2 melanoma
SK-MEL-28 melanoma = system: SK-MEL-28 melanoma
SK-MEL-5 melanoma = system: SK-MEL-5 melanoma
SK-OV-3 ovarian = system: SK-OV-3 ovarian
SN12C renal = system: SN12C renal
SNB-19 CNS = system: SNB-19 CNS
SNB-75 CNS = system: SNB-75 CNS
SW-620 colon = system: SW-620 colon
T-47D breast = system: T-47D breast
TK-10 renal = system: TK-10 renal
U251 CNS = system: U251 CNS
UACC-257 melanoma = system: UACC-257 melanoma
UACC-62 melanoma = system: UACC-62 melanoma
SR leukemia = system: SR leukemia
UO-31 renal = system: UO-31 renal

With CC(C)Cn1cnnc1NS(=O)(=O)c1cc(C(=O)NN)c(Cl)cc1S the TGI (786-0 renal) was over 10 µM, the TGI (A498 renal) was over 10 µM and the TGI (A549 NSCLC) was over 10 µM. The TGI (ACHN renal) was over 10 µM, the TGI (BT-549 breast) was over 10 µM and the TGI (CAKI-1 renal) was over 10 µM. The TGI (CCRF-CEM leukemia) was over 10 µM, the TGI (COLO 205 colon) was over 10 µM and the TGI (DU-145 prostate) was over 10 µM. The TGI (EKVX NSCLC) was over 10 µM, the TGI (HCC-2998 colon) was over 10 µM and the TGI (HCT-116 colon) was over 10 µM. The TGI (HCT-15 colon) was over 10 µM, the TGI (HL-60(TB) leukemia) was over 10 µM and the TGI (HOP-62 NSCLC) was over 10 µM. It also gave a TGI (HOP-92 NSCLC) of over 10 µM, a TGI (HS 578T breast) of over 10 µM and a TGI (HT29 colon) of over 10 µM. It also gave a TGI (IGROV1 ovarian) of over 10 µM, a TGI (K-562 leukemia) of over 10 µM and a TGI (KM12 colon) of over 10 µM. It also gave a TGI (LOX IMVI melanoma) of over 10 µM, a TGI (M14 melanoma) of over 10 µM and a TGI (MALME-3M melanoma) of over 10 µM. The TGI (MCF7 breast) was over 10 µM, the TGI (MDA-MB-231 breast) was over 10 µM and the TGI (MDA-MB-435) was over 10 µM. For the same compound, the TGI (MDA-N) was over 10 µM, the TGI (MOLT-4 leukemia) was over 10 µM and the TGI (NCI-H226 lung) was over 10 µM. The TGI (NCI-H23 lung) was over 10 µM, the TGI (NCI-H460 lung) was over 10 µM and the TGI (NCI-H522 lung) was over 10 µM. For the same compound, the TGI (NCI/ADR-RES ovarian) was over 10 µM, the TGI (OVCAR-3 ovarian) was over 10 µM and the TGI (OVCAR-4 ovarian) was over 10 µM. For the same compound, the TGI (OVCAR-5 ovarian) was over 10 µM, the TGI (OVCAR-8 ovarian) was over 10 µM and the TGI (PC-3 prostate) was over 10 µM. For the same compound, the TGI (RPMI-8226 leukemia) was over 10 µM, the TGI (RXF 393 renal) was over 10 µM and the TGI (SF-268 CNS) was over 10 µM. The TGI (SF-295 CNS) was over 10 µM, the TGI (SF-539 CNS) was over 10 µM and the TGI (SK-MEL-2 melanoma) was over 10 µM. For the same compound, the TGI (SK-MEL-28 melanoma) was over 10 µM, the TGI (SK-MEL-5 melanoma) was over 10 µM and the TGI (SK-OV-3 ovarian) was over 10 µM. For the same compound, the TGI (SN12C renal) was over 10 µM, the TGI (SNB-19 CNS) was over 10 µM and the TGI (SNB-75 CNS) was over 10 µM. It also gave a TGI (SW-620 colon) of over 10 µM, a TGI (T-47D breast) of over 10 µM and a TGI (TK-10 renal) of over 10 µM. For the same compound, the TGI (U251 CNS) was over 10 µM, the TGI (UACC-257 melanoma) was over 10 µM and the TGI (UACC-62 melanoma) was over 10 µM.
CC(=O)NC1C(OCc2ccccc2)OC(CO)C(O)C1OC(C)C(=O)NC(C(=O)NC(CCC(=O)Nc1ccc2c(c1)CN1C(=O)c3ccccc3C1=N2)C(N)=O)C(C)C (stereo not given) showed a TGI (786-0 renal) of over 100 µM, a TGI (A498 renal) of over 100 µM and a TGI (A549 NSCLC) of over 100 µM. It also gave a TGI (ACHN renal) of over 100 µM, a TGI (BT-549 breast) of over 100 µM and a TGI (CAKI-1 renal) of over 100 µM. The TGI (CCRF-CEM leukemia) was over 100 µM, the TGI (COLO 205 colon) was over 100 µM and the TGI (DU-145 prostate) was over 100 µM. It also gave a TGI (EKVX NSCLC) of over 100 µM, a TGI (HCC-2998 colon) of over 100 µM and a TGI (HCT-116 colon) of over 100 µM. For the same compound, the TGI (HCT-15 colon) was over 100 µM, the TGI (HL-60(TB) leukemia) was over 100 µM and the TGI (HOP-62 NSCLC) was over 100 µM. For the same compound, the TGI (HOP-92 NSCLC) was over 100 µM, the TGI (HS 578T breast) was over 100 µM and the TGI (HT29 colon) was over 100 µM. The TGI (IGROV1 ovarian) was over 100 µM, the TGI (K-562 leukemia) was over 100 µM and the TGI (KM12 colon) was over 100 µM. For the same compound, the TGI (LOX IMVI melanoma) was over 100 µM, the TGI (M14 melanoma) was over 100 µM and the TGI (MALME-3M melanoma) was over 100 µM. The TGI (MCF7 breast) was over 100 µM, the TGI (MDA-MB-231 breast) was over 100 µM and the TGI (MDA-MB-435) was over 100 µM. For the same compound, the TGI (MDA-N) was over 100 µM, the TGI (MOLT-4 leukemia) was over 100 µM and the TGI (NCI-H23 lung) was over 100 µM. The TGI (NCI-H460 lung) was over 100 µM, the TGI (NCI/ADR-RES ovarian) was over 100 µM and the TGI (OVCAR-3 ovarian) was over 100 µM. It also gave a TGI (OVCAR-4 ovarian) of over 100 µM, a TGI (OVCAR-5 ovarian) of over 100 µM and a TGI (OVCAR-8 ovarian) of over 100 µM. It also gave a TGI (PC-3 prostate) of over 100 µM, a TGI (RPMI-8226 leukemia) of over 100 µM and a TGI (RXF 393 renal) of over 100 µM. For the same compound, the TGI (SF-268 CNS) was over 100 µM, the TGI (SF-295 CNS) was over 100 µM and the TGI (SF-539 CNS) was over 100 µM. It also gave a TGI (SK-MEL-2 melanoma) of over 100 µM, a TGI (SK-MEL-28 melanoma) of over 100 µM and a TGI (SK-MEL-5 melanoma) of over 100 µM. The TGI (SK-OV-3 ovarian) was over 100 µM, the TGI (SN12C renal) was over 100 µM and the TGI (SNB-19 CNS) was over 100 µM. It also gave a TGI (SNB-75 CNS) of over 100 µM, a TGI (SR leukemia) of over 100 µM and a TGI (SW-620 colon) of over 100 µM. For the same compound, the TGI (T-47D breast) was over 100 µM, the TGI (TK-10 renal) was over 100 µM and the TGI (U251 CNS) was over 100 µM. For the same compound, the TGI (UACC-257 melanoma) was over 100 µM, the TGI (UACC-62 melanoma) was over 100 µM and the TGI (UO-31 renal) was over 100 µM.
With O=C1Nc2ccccc2/C1=C\c1c(Cl)[nH]c2ccccc12 the TGI (786-0 renal) was 3.66 µM, the TGI (A498 renal) was 4.78 µM and the TGI (A549 NSCLC) was 13.3 µM. For the same compound, the TGI (ACHN renal) was 13.1 µM, the TGI (BT-549 breast) was 6.22 µM and the TGI (CAKI-1 renal) was 7.77 µM. The TGI (CCRF-CEM leukemia) was 3.44 µM, the TGI (COLO 205 colon) was 1.23 µM and the TGI (DU-145 prostate) was 20 µM. The TGI (EKVX NSCLC) was 5.29 µM, the TGI (HCC-2998 colon) was 1.68 µM and the TGI (HCT-15 colon) was 17.5 µM. It also gave a TGI (HL-60(TB) leukemia) of 0.728 µM, a TGI (HOP-62 NSCLC) of 7.51 µM and a TGI (HOP-92 NSCLC) of 3.6 µM. For the same compound, the TGI (HS 578T breast) was 2.57 µM, the TGI (HT29 colon) was 0.598 µM and the TGI (IGROV1 ovarian) was 1.35 µM. For the same compound, the TGI (K-562 leukemia) was 7.49 µM, the TGI (KM12 colon) was 1.67 µM and the TGI (LOX IMVI melanoma) was 6.15 µM. For the same compound, the TGI (M14 melanoma) was 4.12 µM, the TGI (MALME-3M melanoma) was 6.39 µM and the TGI (MCF7 breast) was 10.6 µM. The TGI (MDA-MB-231 breast) was 14.3 µM, the TGI (MDA-MB-435) was 0.417 µM and the TGI (MDA-N) was 0.486 µM. The TGI (MOLT-4 leukemia) was 12.6 µM, the TGI (NCI-H226 lung) was 35.5 µM and the TGI (NCI-H23 lung) was 16.1 µM. For the same compound, the TGI (NCI-H460 lung) was 2.59 µM, the TGI (NCI-H522 lung) was 3.54 µM and the TGI (NCI/ADR-RES ovarian) was 1.31 µM. The TGI (OVCAR-3 ovarian) was 17.5 µM, the TGI (OVCAR-5 ovarian) was 5.05 µM and the TGI (OVCAR-8 ovarian) was 8.51 µM. For the same compound, the TGI (PC-3 prostate) was 3.46 µM, the TGI (RPMI-8226 leukemia) was 3.34 µM and the TGI (RXF 393 renal) was 3.55 µM. The TGI (SF-268 CNS) was 7.72 µM, the TGI (SF-295 CNS) was 0.956 µM and the TGI (SF-539 CNS) was 1.43 µM. It also gave a TGI (SK-MEL-2 melanoma) of 6.67 µM, a TGI (SK-MEL-28 melanoma) of 0.78 µM and a TGI (SK-MEL-5 melanoma) of 2.04 µM. For the same compound, the TGI (SK-OV-3 ovarian) was 1.2 µM, the TGI (SN12C renal) was 17.5 µM and the TGI (SNB-19 CNS) was 5.21 µM. It also gave a TGI (SR leukemia) of 0.918 µM, a TGI (SW-620 colon) of 5.45 µM and a TGI (T-47D breast) of over 100 µM. It also gave a TGI (TK-10 renal) of 6.65 µM, a TGI (U251 CNS) of 9.15 µM and a TGI (UACC-257 melanoma) of 17 µM. For the same compound, the TGI (UACC-62 melanoma) was 9.75 µM and the TGI (UO-31 renal) was 6.84 µM.
